Reference: patent US5571820A, “Heterocyclic compound” (Taisho Pharmaceutical Co., Ltd., priority 1992, dated 1996)

Tests used:
serotonin 4 receptor = biological target: T1, serotonin 4 receptor (Cavia porcellus, UniProt O70528); test: Serotonin 4 receptor stimulating activity: twitch responses of electrically stimulated ileum longitudinal muscle strips; assay type: cell-based, guinea pig (Hartley)
T1 construct: from tissue; host or cells: ileum longitudinal muscle strips of Hartley guinea pig
From the text: Experiment 1. Serotonin 4 Receptor Stimulating Activity Compounds Tested
Twitch responses were examined in longitudinal muscle strips of guinea pig by a modification of the method described in The Journal of Pharmacology and Experimental Therapeutics, 252, 1378, 1990.
From Hartley guinea pigs, a section of ileum 25 cm in length and proximal to the ileocecal junction was removed. The longitudinal muscle strips obtained from two segments of ileum about 4 cm each in length were used for this experiment. The longitudinal muscle strips were suspended in Krebs' solution at 32° to 34° C. and bubbled with 95% O2 and 5% CO2 under a load of about 0.8 g. Twitch responses were recorded under electrical stimulation of 0.2 Hz, 1 msec pulse duration, using force displacement transducers. The longitudinal muscle strips, stimulated at supramaximal voltage, were allowed to equilibrate for about an hour. […] The test was carried out by exposing the strips to cumulative additions of agonist at least at 45-minute intervals.

[1] = system: gastrointestinal tract motor action; test: Activity on gastrointestinal motor in dogs (strain gauge force transducers, conscious); assay type: in vivo, Beagle dogs of both sexes; conditions: for Motility index (% of value prior to administration): gastric motor action after feeding
Protocol: Experiment 3. Activity on Gastrointestinal Motor in Dogs The activity was determined by a modification of the method described in Gastroenterologia Japonica, 12, 275, 1977. Beagle dogs of both sexes weighing 9 to 15 kg were anesthetized with sodium pentobarbital and strain gauge force transducers were sutured on five (5) portions, i.e., for determining antral, duodenum, jejunal, ileal and colonal motor responses. A cannula for administering a drug was mounted persistently into the jugular vein. After recovery of the surgery, motor responses at those portions on the gastrointestinal tract in both during a fasting period and after feeding were determined in the conscious dogs. The compound of the present invention was administered by dissolving the compound in 5% lactate saline aqueous solution for intravenous injection and for oral administration by suspending the compound in 5% gum arabic aqueous solution. The motor index is shown in terms of a proportion (%) of a mean value calculated for 15 minutes to a value prior to administration (0 minute). The value for 0 minute was made a mean value for 30 minutes prior to the administration. Results

gastric emptying = test: Activity on gastric emptying in rat (glass spheroids); assay type: in vivo, male Wistar rats
Protocol: Experiment 4. Activity on Gastric Emptying in Rat The activity was investigated by a modification of the method described in British Journal of Pharmacology, 91, 263, 1987. Male Wistar rats weighing 170 to 220 g were used which were deprived of food for 24 hours. Glass spheroids of 500 mg/ml were orally administered to the animal in a dose of 1 ml 30 minutes after subcutaneous administration or 60 minutes after oral administration, of drugs. The glass spheroids remained in the stomach were recovered and their weight was measured to determine gastric emptying to control motility. The compound of the present invention was suspended in physiological saline and the resulting suspension was administered.

intestinal transit = test: Activity on intestinal transit in mice (carbon powder); assay type: in vivo, male ICR mice; conditions: for Intestinal transit (%): moving rate calculated for control animal
Protocol: Experiment 5. Activity on Intestinal Transit in Mice
The activity was determined by a modification of the method described in YAKURI-TO-CHIRYO, 10, 195, 1982.
Male ICR mice weighing 20 to 30 g were used which were deprived of food for 24 hours. A suspension containing 5% carbon powder gum arabic was orally administered to the animal in a dose of 1 ml 15 minutes after subcutaneous administration or 30 minutes after oral administration, of drugs. The intestinal tract was removed 20 minutes after. The entire length of the intestinal tract and the distance of the carbon powders moved were measured, and a moving rate was calculated for control animal.

[2] = Mouse single administration (acute toxicity); assay type: in vivo; conditions: single oral administration
From the text: Toxicity of the compound represented by formula (1) which is the effective ingredient of the pharmaceutical composition of the present invention was examined in terms of toxicity by mouse single administration (acute toxicity).

[3] = Toxicity on consecutive 14-day oral administration in rat; assay type: in vivo, male Wistar rats
Protocol: Experiment 6. Toxicity on Consecutive 14-day Oral Administration in Rat
Toxicity of consecutive oral administration was investigated by oral administration of male Wistar rats of 5 weeks age, weighing 124 to 140 g and seven rats forming one group, orally received the compound of the present invention for 14 consecutive days in a daily dose of 100 mg/kg or 250 mg/kg once a day. During the course of administration, general conditions were observed and the body weight was measured. At the time when the administration was completed, hematological inspection, hematochemical inspection, urinalysis, anatomical finding, organ weight measurement and pathohistological inspection were performed.

[4] = 250 mg/kg daily, oral, 14 consecutive days

T1 sequence (O70528 whole entry): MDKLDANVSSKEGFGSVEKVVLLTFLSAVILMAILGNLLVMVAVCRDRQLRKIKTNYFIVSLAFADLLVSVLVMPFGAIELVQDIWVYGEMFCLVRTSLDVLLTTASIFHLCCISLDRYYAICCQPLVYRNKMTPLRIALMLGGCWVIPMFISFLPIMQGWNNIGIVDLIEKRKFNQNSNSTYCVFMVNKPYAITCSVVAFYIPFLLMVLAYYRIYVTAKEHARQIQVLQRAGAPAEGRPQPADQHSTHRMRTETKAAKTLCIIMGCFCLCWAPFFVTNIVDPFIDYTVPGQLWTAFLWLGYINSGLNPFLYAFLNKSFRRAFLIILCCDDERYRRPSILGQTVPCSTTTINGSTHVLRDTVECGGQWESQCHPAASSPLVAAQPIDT

CC(C)n1c(=O)c(C(=O)N[C@H]2C[C@H]3CC[C@@H](C2)N3C)cc2ccccc21 [Compound 1, endo-N-(8-methyl-8-azabicyclo[3.2.1]oct-3-yl)-1-isopropyl-2(1H)-quinolone-3-carboxamide]
EC50 (serotonin 4 receptor): 21.4 nM | serotonin 4 receptor stimulating activity, comparison with Compounds 2 to 7 (serotonin 4 receptor; in words, from Table 2): much more potent serotonin 4 receptor stimulating activity than any of the other compounds | Motility index (% of value prior to administration) ([1]; 0.3 mg/kg intravenous, 15 min, N = 3): 371.4% | Motility index (% of value prior to administration) ([1]; 0.3 mg/kg intravenous, 30 min, N = 3): 322.6% | Motility index (% of value prior to administration) ([1]; 0.3 mg/kg intravenous, 45 min, N = 3, *: P < 0.05): 282.3% | Motility index (% of value prior to administration) ([1]; 0.3 mg/kg intravenous, 60 min, N = 3, *: P < 0.05): 261.1% | Motility index (% of value prior to administration) ([1]; 0.3 mg/kg intravenous, 75 min, N = 3, **: P < 0.01): 281.9% | Motility index (% of value prior to administration) ([1]; 0.3 mg/kg intravenous, 90 min, N = 3, *: P < 0.05): 262.1% | Motility index (% of value prior to administration) ([1]; 0.3 mg/kg intravenous, 105 min, N = 3, *: P < 0.05): 242.9% | Motility index (% of value prior to administration) ([1]; 0.3 mg/kg intravenous, 120 min, N = 3): 195.2% | Motility index (% of value prior to administration) ([1]; 1 mg/kg oral, 15 min, N = 3): 116.4% | Motility index (% of value prior to administration) ([1]; 1 mg/kg oral, 30 min, N = 3): 193.5% | Motility index (% of value prior to administration) ([1]; 1 mg/kg oral, 45 min, N = 3, *: P < 0.05): 191.4% | Motility index (% of value prior to administration) ([1]; 1 mg/kg oral, 60 min, N = 3, **: P < 0.01): 206.9% | Motility index (% of value prior to administration) ([1]; 1 mg/kg oral, 75 min, N = 3, *: P < 0.05): 202.2% | Motility index (% of value prior to administration) ([1]; 1 mg/kg oral, 90 min, N = 3, *: P < 0.05): 192.5% | Motility index (% of value prior to administration) ([1]; 1 mg/kg oral, 105 min, N = 3, *: P < 0.05): 207.3% | Motility index (% of value prior to administration) ([1]; 1 mg/kg oral, 120 min, N = 3): 194.9% | Motility index (% of value prior to administration) ([1]; 1 mg/kg oral, 180 min, N = 3): 195.8% | Motility index (% of value prior to administration) ([1]; 1 mg/kg oral, 210 min, N = 3): 176.2% | Motility index (% of value prior to administration) ([1]; 1 mg/kg oral, 240 min, N = 3): 182.8% | effect on the motor action of the gastrointestinal tract ([1]; intravenous and oral, both during fasting period and after feeding): showed acceleration on the motor action of the gastrointestinal tract | effect on gastric emptying (gastric emptying; oral and subcutaneous): dose-dependently accelerated gastric emptying | Residual rate in stomach (%) (gastric emptying; p.o. 0.03 mg/kg, 5 cases): 67.3% | Residual rate in stomach (%) (gastric emptying; p.o. 0.3 mg/kg, 5 cases): 64.5% | Residual rate in stomach (%) (gastric emptying; p.o. 3.0 mg/kg, 6 cases): 42.0% | Residual rate in stomach (%) (gastric emptying; s.c. 0.1 mg/kg, 5 cases): 51.8% | Residual rate in stomach (%) (gastric emptying; s.c. 1.0 mg/kg, 5 cases): 50.3% | Residual rate in stomach (%) (gastric emptying; s.c. 10.0 mg/kg, 4 cases): 36.8% | effect on intestinal transit (intestinal transit; oral and subcutaneous): accelerated the intestinal transit | Intestinal transit (%) (intestinal transit; p.o. 1 mg/kg, 5 cases): 100.6% | Intestinal transit (%) (intestinal transit; p.o. 3 mg/kg, 5 cases): 121.4% | Intestinal transit (%) (intestinal transit; p.o. 10 mg/kg, 6 cases): 120.4% | Intestinal transit (%) (intestinal transit; s.c. 1 mg/kg, 5 cases): 116.6% | Intestinal transit (%) (intestinal transit; s.c. 3 mg/kg, 4 cases): 117.8% | Intestinal transit (%) (intestinal transit; s.c. 10 mg/kg, 6 cases, **: P < 0.01): 138.3% | minimum lethal dose [2]: more than 125 mg/kg | toxic change ([3]; 100 mg/kg daily, oral, 14 consecutive days): no toxic change was noted | body weight [3, 4]: prevention of body weight increase was noted | secondary changes in organs (liver, thymus, adrenogenital organ, adrenal, etc.) [3, 4]: secondary changes accompanied by aggravation of general conditions were observed in the liver, thymus, adrenogenital organ, adrenal, etc. | overall toxicity ([3]; 14-day oral, taking into account pharmacological activities): the toxicity is reasonably assumed to be weak
